Source: US20240158370A1, “CK1 alpha AND DUAL CK1 alpha / GSPT1 DEGRADING COMPOUNDS” (Innovo Therapeutics, Inc., priority 2022, published 2024)
Blank lines part the entries; values can stand above or below the compound they belong to.

Assays:
GSPT1 = GSPT1 (Homo sapiens, UniProt P15170+Q96SW2); experiment: HiBiT degradation assay, GSPT1, Procedure B (Molt 4_hGSPT1_HiBIT cells); assay type: cell-based; design: Molt 4_hGSPT1_HiBIT N-terminus tagged cells were generated using CRISPR technology; endogenous in cells; host or cells: Molt 4 cells, CRISPR-edited; details: six hours
GSPT1, sequence (P15170 whole entry): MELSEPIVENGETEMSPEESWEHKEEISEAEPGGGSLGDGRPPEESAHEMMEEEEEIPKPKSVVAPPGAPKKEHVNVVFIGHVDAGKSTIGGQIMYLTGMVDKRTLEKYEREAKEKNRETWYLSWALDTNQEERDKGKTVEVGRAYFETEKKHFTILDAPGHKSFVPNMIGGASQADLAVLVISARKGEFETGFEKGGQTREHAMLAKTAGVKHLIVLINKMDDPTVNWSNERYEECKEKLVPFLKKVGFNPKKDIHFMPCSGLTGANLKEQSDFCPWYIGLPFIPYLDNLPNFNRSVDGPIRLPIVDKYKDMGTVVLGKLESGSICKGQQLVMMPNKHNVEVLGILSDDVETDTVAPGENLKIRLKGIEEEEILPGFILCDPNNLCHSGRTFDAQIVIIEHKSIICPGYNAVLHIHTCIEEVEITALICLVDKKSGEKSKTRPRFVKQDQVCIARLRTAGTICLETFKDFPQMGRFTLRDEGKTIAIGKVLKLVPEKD
GSPT1, sequence (Q96SW2 whole entry): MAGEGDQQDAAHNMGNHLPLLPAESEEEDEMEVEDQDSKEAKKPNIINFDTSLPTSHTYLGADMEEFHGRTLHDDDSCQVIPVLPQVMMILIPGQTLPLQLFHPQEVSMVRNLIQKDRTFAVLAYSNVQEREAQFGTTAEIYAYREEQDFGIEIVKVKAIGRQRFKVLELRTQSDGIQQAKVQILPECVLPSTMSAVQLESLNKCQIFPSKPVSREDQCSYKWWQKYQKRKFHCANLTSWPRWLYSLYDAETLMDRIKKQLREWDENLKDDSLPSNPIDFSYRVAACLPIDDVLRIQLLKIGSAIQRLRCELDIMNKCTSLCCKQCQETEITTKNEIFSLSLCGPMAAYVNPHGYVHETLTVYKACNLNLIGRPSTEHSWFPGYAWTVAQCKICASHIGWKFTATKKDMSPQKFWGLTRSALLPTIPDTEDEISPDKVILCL
GSPT1, sequence (Q16531 whole entry partner): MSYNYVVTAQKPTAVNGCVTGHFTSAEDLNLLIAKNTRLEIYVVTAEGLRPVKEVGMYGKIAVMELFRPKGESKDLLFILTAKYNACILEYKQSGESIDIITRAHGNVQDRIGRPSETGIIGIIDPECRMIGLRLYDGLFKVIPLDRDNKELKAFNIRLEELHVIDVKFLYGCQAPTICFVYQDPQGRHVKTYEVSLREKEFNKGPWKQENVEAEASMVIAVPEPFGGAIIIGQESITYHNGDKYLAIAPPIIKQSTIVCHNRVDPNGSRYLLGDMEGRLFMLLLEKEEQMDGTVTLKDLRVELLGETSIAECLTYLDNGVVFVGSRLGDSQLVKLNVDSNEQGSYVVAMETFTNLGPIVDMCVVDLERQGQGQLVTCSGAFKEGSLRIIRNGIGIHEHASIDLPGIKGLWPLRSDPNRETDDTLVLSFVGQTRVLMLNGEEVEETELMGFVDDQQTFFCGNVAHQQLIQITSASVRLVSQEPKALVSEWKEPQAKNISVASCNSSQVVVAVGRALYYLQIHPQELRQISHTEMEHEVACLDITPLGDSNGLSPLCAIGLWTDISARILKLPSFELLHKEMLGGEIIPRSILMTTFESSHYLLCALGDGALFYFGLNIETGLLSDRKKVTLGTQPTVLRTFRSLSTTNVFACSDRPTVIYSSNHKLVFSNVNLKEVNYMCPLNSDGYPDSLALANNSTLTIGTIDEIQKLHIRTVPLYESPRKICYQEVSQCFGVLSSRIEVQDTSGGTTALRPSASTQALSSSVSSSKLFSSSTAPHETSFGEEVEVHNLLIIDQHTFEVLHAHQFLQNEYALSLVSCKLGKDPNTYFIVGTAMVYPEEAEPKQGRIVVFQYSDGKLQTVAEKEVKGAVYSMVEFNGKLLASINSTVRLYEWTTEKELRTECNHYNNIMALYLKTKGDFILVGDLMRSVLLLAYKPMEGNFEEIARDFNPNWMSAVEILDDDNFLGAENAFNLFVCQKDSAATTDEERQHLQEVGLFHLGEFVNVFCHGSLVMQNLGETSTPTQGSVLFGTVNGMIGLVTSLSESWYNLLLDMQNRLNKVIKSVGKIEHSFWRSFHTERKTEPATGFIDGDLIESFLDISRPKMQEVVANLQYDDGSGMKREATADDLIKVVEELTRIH
Method: Molt 4_hGSPT1_HiBIT N-terminus tagged cells were generated using CRISPR technology. Cells were maintained in RPMI media (Thermo Fisher Scientific, Catalog #11875-093) containing 10% Fetal Bovine Serum (Thermo Fisher Scientific, Catalog #16140071) 1% Penicillin-Streptomycin (Thermo Fisher Scientific, Catalog #25200056). Cells were maintained at 37° C. in a 5% CO2 environment.
Compounds were spotted onto Cornin 384-Well, Cell Culture-Treated, Flat-Bottom, Low Flange Microplate (Fisher Scientific, Catalog #07-201-013) using a Tecan D300e digital dispenser. Ten-point dose response curves spanning from 10 μM to 0.005 μM with a 0.1% DMSO tolerance were used.
Cells were centrifuged for 5 minutes at 1200 RPMs. Cell culture media was aspirated off and cells were resuspended with RPMI+10% FBS. Cell density was determined using a Denovix CellDrop BF cell counter. Cell density was adjusted to 1×10^6 cells/ml. 40 μl of cells was added to compound treated tissue culture plates and incubated for six hours at 37° C. After six hours, cell culture plates were removed from tissue culture incubator and cooled to room temperature. 40 μl of Nano-GloHiBiT Lytic Detection Reagent (Promega, Catalog #N3040) was added to each well. Plates were placed on an orbital shaker (600 rpm) for 20 minutes. Luminescence was measured using an Envsion plate reader (Perkin Elmer). IC50 curves and Ymin were generated using a 4-parameter curve fit with GraphPad Prism software (Prism Corporation).
Results from the HiBiT assay (DC50 (nM) and Ymin (% remaining)) are shown below. All CK1α data was generated according to Procedure A. GSPT1 data for Examples 1-600, 603-620 and 703-705 was generated according to Procedure A. GSPT1 data for Examples 601, 621-702 and 706-735 was generated according to Procedure B.

CK1α = molecular target: T1, CK1α (Homo sapiens, UniProt P48729+Q96SW2); experiment: HiBiT degradation assay, CK1α, Procedure A; assay type: cell-based; details: six hours
T1 construct: CSNK1A1-HiBit KI HEK293(LgBit) Cells; host or cells: HEK293(LgBit) knock-in cells
T1 sequence (P48729 whole entry): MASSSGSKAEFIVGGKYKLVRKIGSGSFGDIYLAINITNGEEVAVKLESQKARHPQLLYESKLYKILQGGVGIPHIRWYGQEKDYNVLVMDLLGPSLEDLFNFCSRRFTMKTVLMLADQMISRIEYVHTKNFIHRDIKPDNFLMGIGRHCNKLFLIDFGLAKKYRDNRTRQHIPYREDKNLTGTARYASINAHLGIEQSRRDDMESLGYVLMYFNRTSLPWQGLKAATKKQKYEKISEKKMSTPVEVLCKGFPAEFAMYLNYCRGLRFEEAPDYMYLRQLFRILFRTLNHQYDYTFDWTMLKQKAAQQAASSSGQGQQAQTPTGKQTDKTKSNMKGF
T1 sequence (Q96SW2 whole entry): as the sequence (Q96SW2 whole entry) above
T1 sequence (Q16531 whole entry partner): as the sequence (Q16531 whole entry partner) above
Method in brief: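 Cells in DMEM+10% FBS at 1×10^6 cells/ml were added to pre-spotted compound (10-point dose response, 10 μM to 0.005 μM, 0.1% DMSO) and incubated 6 h at 37° C. Nano-Glo HiBiT lytic reagent was added and luminescence read. DC50 and Ymin came from 4-parameter curve fits.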

SMILES: Cn1cc(-c2ccc3c(c2)CN(C2CCC(=O)NC2=O)C3=O)nc1-c1ccccc1N (centres unmarked) [Example 634]
- DC50 (GSPT1): ≥ 25 nM
- GSPT1 Ymin (GSPT1): E (E = >25-75% remaining)
- CK1α Ymin (CK1α): C (C = 0-10% remaining)
- DC50 (CK1α): < 25 nM

SMILES: Cn1cc(-c2ccc3c(c2)CN(C2CCC(=O)NC2=O)C3=O)nc1-c1cccc(Cl)c1 (centres unmarked) [Example 635]
- DC50 (GSPT1): ≥ 25 nM
- GSPT1 Ymin (GSPT1): F (F = >75-100% remaining)
- CK1α Ymin (CK1α): C (C = 0-10% remaining)
- DC50 (CK1α): < 25 nM

SMILES: Cn1cc(-c2ccc3c(c2)CN(C2CCC(=O)NC2=O)C3=O)nc1-c1cccc(CO)c1 (centres unmarked) [Example 636]
- DC50 (GSPT1): ≥ 25 nM
- GSPT1 Ymin (GSPT1): F (F = >75-100% remaining)
- CK1α Ymin (CK1α): C (C = 0-10% remaining)
- DC50 (CK1α): ≥ 25 nM

SMILES: Cn1cc(-c2ccc3c(c2)CN(C2CCC(=O)NC2=O)C3=O)nc1-c1cccc(OC(F)(F)F)c1 (centres unmarked) [Example 637]
- DC50 (GSPT1): < 25 nM
- GSPT1 Ymin (GSPT1): F (F = >75-100% remaining)
- CK1α Ymin (CK1α): D (D = >10- 25% remaining)
- DC50 (CK1α): < 25 nM

SMILES: COc1cc(Cl)ccc1-c1nc(-c2ccc3c(c2)CN(C2CCC(=O)NC2=O)C3=O)cn1C (centres unmarked) [Example 638]
- DC50 (GSPT1): < 25 nM
- GSPT1 Ymin (GSPT1): F (F = >75-100% remaining)
- CK1α Ymin (CK1α): C (C = 0-10% remaining)
- DC50 (CK1α): < 25 nM

SMILES: Cn1cc(-c2ccc3c(c2)CN(C2CCC(=O)NC2=O)C3=O)nc1-c1ccccc1Cl (centres unmarked) [Example 639]
- DC50 (GSPT1): ≥ 25 nM
- GSPT1 Ymin (GSPT1): E (E = >25-75% remaining)
- CK1α Ymin (CK1α): C (C = 0-10% remaining)
- DC50 (CK1α): < 25 nM

SMILES: Cc1ccc(Cl)cc1-c1nc(-c2ccc3c(c2)CN(C2CCC(=O)NC2=O)C3=O)cn1C (centres unmarked) [Example 640]
- DC50 (GSPT1): ≥ 25 nM
- GSPT1 Ymin (GSPT1): F (F = >75-100% remaining)
- CK1α Ymin (CK1α): C (C = 0-10% remaining)
- DC50 (CK1α): < 25 nM

Next, values leading:

- DC50 (GSPT1): ≥ 25 nM
- GSPT1 Ymin (GSPT1): F (F = >75-100% remaining)
- CK1α Ymin (CK1α): C (C = 0-10% remaining)
- DC50 (CK1α): < 25 nM
SMILES: Cn1cc(-c2ccc3c(c2)CN(C2CCC(=O)NC2=O)C3=O)nc1-c1cccc(F)c1C#N (centres unmarked) [Example 641]

- DC50 (GSPT1): < 25 nM
- GSPT1 Ymin (GSPT1): E (E = >25-75% remaining)
- CK1α Ymin (CK1α): C (C = 0-10% remaining)
- DC50 (CK1α): ≥ 25 nM
SMILES: Cn1cc(-c2ccc3c(c2)CN(C2CCC(=O)NC2=O)C3=O)nc1-c1cccc(O)c1 (centres unmarked) [Example 642]

- DC50 (GSPT1): ≥ 25 nM
- GSPT1 Ymin (GSPT1): F (F = >75-100% remaining)
- CK1α Ymin (CK1α): D (D = >10- 25% remaining)
- DC50 (CK1α): < 25 nM
SMILES: COc1ccc(Cl)cc1-c1nc(-c2ccc3c(c2)CN(C2CCC(=O)NC2=O)C3=O)cn1C (centres unmarked) [Example 643]

- DC50 (GSPT1): ≥ 25 nM
- GSPT1 Ymin (GSPT1): F (F = >75-100% remaining)
- CK1α Ymin (CK1α): D (D = >10- 25% remaining)
- DC50 (CK1α): < 25 nM
SMILES: Cn1cc(-c2ccc3c(c2)CN(C2CCC(=O)NC2=O)C3=O)nc1-c1ccc(Cl)cc1F (centres unmarked) [Example 644]

- DC50 (GSPT1): ≥ 25 nM
- GSPT1 Ymin (GSPT1): F (F = >75-100% remaining)
- CK1α Ymin (CK1α): D (D = >10- 25% remaining)
- DC50 (CK1α): < 25 nM
SMILES: Cn1cc(-c2ccc3c(c2)CN(C2CCC(=O)NC2=O)C3=O)nc1-c1ccc(F)c(Cl)c1 (centres unmarked) [Example 645]

- DC50 (GSPT1): ≥ 25 nM
- GSPT1 Ymin (GSPT1): F (F = >75-100% remaining)
- CK1α Ymin (CK1α): C (C = 0-10% remaining)
- DC50 (CK1α): < 25 nM
SMILES: Cn1cc(-c2ccc3c(c2)CN(C2CCC(=O)NC2=O)C3=O)nc1-c1cccs1 (centres unmarked) [Example 646]

- DC50 (GSPT1): ≥ 25 nM
- GSPT1 Ymin (GSPT1): F (F = >75-100% remaining)
- CK1α Ymin (CK1α): D (D = >10- 25% remaining)
- DC50 (CK1α): < 25 nM
SMILES: Cn1cc(-c2ccc3c(c2)CN(C2CCC(=O)NC2=O)C3=O)nc1-c1ccc(F)cc1Cl (centres unmarked) [Example 647]
